# Source: ChEMBL document CHEMBL1201862, “PubChem BioAssay data set” (2004)
# Calls of active or inactive are those of the source.
# Experiments:
# [1] = target: Protein-tyrosine kinase 2-beta (Homo sapiens, UniProt Q14289);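 note: potency of inhibitors of PYK2 kinase phosphorylation of poly-GT substrate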
# [2] = Luminescence Cell-Based Dose Retest to Confirm Inhibitors of Cancer Stem Cells. [Related pubchem assays (depositor defined):AID2717, AID2721]; format: functional; settings: Homo sapiens
# Cytochrome P450 1A2 = target: T1, Cytochrome P450 1A2 (Homo sapiens, UniProt P05177);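 note: PubChem cytochrome P450 panel assay, CYP1A2 panel member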
# T1 sequence (P05177 whole entry): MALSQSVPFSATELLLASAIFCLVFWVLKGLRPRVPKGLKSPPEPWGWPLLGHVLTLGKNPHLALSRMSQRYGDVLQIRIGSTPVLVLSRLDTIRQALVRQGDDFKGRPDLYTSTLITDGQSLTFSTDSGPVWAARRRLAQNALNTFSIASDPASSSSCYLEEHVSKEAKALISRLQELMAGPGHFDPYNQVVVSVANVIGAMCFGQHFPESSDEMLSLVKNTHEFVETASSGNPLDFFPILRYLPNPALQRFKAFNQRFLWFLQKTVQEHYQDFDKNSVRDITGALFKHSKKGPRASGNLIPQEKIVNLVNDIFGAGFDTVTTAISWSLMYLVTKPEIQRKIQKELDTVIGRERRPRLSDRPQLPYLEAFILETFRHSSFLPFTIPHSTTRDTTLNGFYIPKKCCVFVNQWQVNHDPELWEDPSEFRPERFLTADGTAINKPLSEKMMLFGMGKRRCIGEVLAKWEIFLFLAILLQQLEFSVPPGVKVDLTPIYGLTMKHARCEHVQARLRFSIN
# BJ [3] = experiment: BJ-TERT fibroblast viability loss – cell-based, RAS-independent, luminescence, dose response (AID 1933); format: functional; settings: Homo sapiens
# Vero [4] = experiment: mammalian cell viability reduction – secondary assay, cytotoxicity control for West Nile virus antiviral project, dose response (AID 1650); format: functional; settings: Chlorocebus sabaeus
# BJ [5] = experiment: cells; format: functional, cell-based; settings: Homo sapiens
# [6] = Luminescence-based counterscreen assay for KLF5 inhibitors: dose response cell-based high throughput screening assay to identify cytotoxic compounds using the IEC-6 intestinal epithelial cell line. [Related pubchem assays: 1700 (Primary screen.), 1834 (Confirmation screen.), 1858 (Summary AID.), 1905 (Counterscreen.)]; format: functional
# BJ [7] = experiment: BJ-TERT-LT-ST fibroblast viability loss – cell-based, RAS-independent, luminescence, dose response (AID 1935); format: functional; settings: Homo sapiens;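 note: BJ fibroblasts immortalized with TERT plus LT and ST oncogenes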
# [8] = DRD fibroblast viability loss – cell-based, non-viral oncogenic, luminescence, dose response (AID 1934); format: functional; settings: Homo sapiens
# [9] = HEK-293T viability loss after treatment – luminescence, T-cell screen hits, cytotoxicity control for TCR NF-kB inhibitor project, dose response (AID 489026); format: functional, cell-based;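 note: cells exposed to compound about 14 hours before the viability readout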
# BJ [10] = experiment: growth inhibition of engineered Ras-driven BJ cells – cell-based, alamar blue fluorescence, cherrypicked samples, dose response (AID 2631); format: functional; settings: Homo sapiens;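 note: confirmatory dose-response assay in RAS-dependent BJ fibroblasts engineered with TERT, LT and ST, with cytotoxicity read by fluorescence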
# Vero [11] = experiment: cells; format: functional; settings: Chlorocebus sabaeus
# Paired box protein Pax-8 = Paired box protein Pax-8 (Homo sapiens, UniProt Q06710); experiment: PAX8 transcriptional activity inhibition in RMG-I – RMG-I cells, luciferase, cherry-pick, dose response (AID 687027); format: functional, cell-based;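 note: luciferase reporter driven by Pax8 target thyroperoxidase promoter measured by SteadyGlo luminescence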
# [12] = general cell-killing toxicity readout – plate reader, dry powder samples, cytotoxicity control for PAX8 inhibitor project, dose response (AID 743021); format: functional, cell-based
# [13] = target: T2, Replicative DNA helicase DnaB (Mycobacterium tuberculosis, UniProt P9WMR3); experiment: DnaB intein splicing inhibitors, dose response, biochemical, cell-free fluorescence (AID 449749); format: functional
# T2 sequence (P9WMR3 whole entry): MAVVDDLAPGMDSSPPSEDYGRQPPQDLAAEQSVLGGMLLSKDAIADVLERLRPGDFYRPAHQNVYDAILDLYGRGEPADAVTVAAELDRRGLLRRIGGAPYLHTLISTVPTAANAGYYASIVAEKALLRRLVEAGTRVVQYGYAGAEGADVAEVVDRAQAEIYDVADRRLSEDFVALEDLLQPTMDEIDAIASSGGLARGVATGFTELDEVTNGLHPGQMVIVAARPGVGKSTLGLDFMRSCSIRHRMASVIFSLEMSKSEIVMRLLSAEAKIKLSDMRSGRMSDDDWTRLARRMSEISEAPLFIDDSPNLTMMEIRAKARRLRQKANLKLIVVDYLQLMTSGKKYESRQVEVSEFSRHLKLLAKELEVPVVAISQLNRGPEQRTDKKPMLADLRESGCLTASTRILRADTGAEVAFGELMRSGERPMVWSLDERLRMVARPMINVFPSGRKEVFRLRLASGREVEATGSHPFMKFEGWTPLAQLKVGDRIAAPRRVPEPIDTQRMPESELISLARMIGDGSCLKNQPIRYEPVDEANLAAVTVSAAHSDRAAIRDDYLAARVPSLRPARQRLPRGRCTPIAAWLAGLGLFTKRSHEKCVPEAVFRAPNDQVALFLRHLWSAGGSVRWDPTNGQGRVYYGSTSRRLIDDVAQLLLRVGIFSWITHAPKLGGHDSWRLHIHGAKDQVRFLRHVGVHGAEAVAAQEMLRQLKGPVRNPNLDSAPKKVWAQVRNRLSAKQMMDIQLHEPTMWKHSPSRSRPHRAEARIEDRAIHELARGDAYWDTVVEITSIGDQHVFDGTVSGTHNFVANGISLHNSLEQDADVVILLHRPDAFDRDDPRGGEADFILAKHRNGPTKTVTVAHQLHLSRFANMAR
# Protein RecA = target: T3, Protein RecA (Mycobacterium tuberculosis, UniProt P9WHJ3); experiment: Fluorescence Cell-Free Homogeneous Dose Retest to Identify Inhibitors of RecA-Intein Splicing Activity. [Related pubchem assays (depositor defined):AID2097, AID2223, AID489010, AID492950]; format: functional
# T3 sequence (P9WHJ3 whole entry): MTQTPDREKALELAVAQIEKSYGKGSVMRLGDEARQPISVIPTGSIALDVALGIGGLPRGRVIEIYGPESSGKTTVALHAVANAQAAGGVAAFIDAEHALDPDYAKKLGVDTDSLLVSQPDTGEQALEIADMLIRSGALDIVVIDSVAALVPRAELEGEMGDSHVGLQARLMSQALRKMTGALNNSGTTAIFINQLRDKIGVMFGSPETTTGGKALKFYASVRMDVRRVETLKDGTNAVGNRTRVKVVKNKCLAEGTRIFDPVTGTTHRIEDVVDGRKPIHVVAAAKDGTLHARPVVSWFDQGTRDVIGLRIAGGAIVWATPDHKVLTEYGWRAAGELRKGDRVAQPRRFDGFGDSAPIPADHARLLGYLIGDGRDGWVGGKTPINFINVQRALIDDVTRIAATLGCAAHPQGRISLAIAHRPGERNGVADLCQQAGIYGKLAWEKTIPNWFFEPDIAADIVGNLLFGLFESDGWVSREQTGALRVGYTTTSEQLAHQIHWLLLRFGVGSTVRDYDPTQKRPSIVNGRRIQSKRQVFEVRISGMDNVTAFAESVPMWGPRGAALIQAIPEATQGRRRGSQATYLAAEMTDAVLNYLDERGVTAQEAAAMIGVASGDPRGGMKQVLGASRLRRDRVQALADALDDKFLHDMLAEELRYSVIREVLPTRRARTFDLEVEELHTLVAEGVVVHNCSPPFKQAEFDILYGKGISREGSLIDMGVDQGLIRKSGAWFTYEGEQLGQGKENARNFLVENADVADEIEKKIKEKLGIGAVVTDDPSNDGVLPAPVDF
# [14] = HIV-1 Vif–A3G interaction blockers – biochemical, TR-FRET, GST-Vif 1-94, biotin-A3G peptide, dose response retest, primary screen (AID 1117319); format: functional;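 note: TR-FRET signal of purified GST-Vif binding a biotinylated A3G peptide; inhibitors lower the FRET signal by blocking Vif and A3G binding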
# Cytochrome P450 2C19 = Cytochrome P450 2C19 (Homo sapiens, UniProt P33261); experiment: Cytochrome panel assay with activity outcomes. Panel member name: p450-cyp2c19 Compounds with AC50 equal or less than 10 uM are considered active; format: functional; settings: read-out: AC50
# Cytochrome P450 3A4 = Cytochrome P450 3A4 (Homo sapiens, UniProt P08684);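 note: CYP3A4 tested as one member of a cytochrome P450 panel screen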
# Large T antigen = Large T antigen (Simian virus 40, UniProt P03070); format: functional, Betapolyomavirus macacae;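 note: Confirmatory-stage PubChem screen for compounds that inhibit SV40 T antigen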
# [15] = target: Glucose-6-phosphate 1-dehydrogenase (Homo sapiens, UniProt P11413); experiment: inhibition of Homo sapiens G6PD, dose series – biochemical, fluorescence, selectivity assay for P. falciparum G6PD inhibitor project, dose response (AID 504792); format: functional
# Caspase-6 = target: T4, Caspase-6 (Homo sapiens, UniProt P55212); experiment: inhibition of CASP6 peptide cleavage – biochemical, VEID-R110 fluorescence, cherry-pick, dose response (AID 720632)
# T4 sequence (P55212 whole entry): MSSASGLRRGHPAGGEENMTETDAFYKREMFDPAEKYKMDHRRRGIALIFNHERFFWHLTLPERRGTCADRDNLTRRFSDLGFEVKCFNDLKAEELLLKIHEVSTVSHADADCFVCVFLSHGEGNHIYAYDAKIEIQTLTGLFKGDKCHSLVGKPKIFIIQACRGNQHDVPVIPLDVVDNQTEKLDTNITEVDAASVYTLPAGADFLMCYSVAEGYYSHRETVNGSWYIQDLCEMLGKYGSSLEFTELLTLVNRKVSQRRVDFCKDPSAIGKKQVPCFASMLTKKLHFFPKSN
# Caspase-9 = target: T5, Caspase-9 (Homo sapiens, UniProt P55211); experiment: inhibitors of purified CASP9 protease – biochemical, fluorescence, plate reader, cherry-picked samples, selectivity assay for caspase-6 inhibitor project, dose response (AID 743293)
# T5 sequence (P55211 whole entry): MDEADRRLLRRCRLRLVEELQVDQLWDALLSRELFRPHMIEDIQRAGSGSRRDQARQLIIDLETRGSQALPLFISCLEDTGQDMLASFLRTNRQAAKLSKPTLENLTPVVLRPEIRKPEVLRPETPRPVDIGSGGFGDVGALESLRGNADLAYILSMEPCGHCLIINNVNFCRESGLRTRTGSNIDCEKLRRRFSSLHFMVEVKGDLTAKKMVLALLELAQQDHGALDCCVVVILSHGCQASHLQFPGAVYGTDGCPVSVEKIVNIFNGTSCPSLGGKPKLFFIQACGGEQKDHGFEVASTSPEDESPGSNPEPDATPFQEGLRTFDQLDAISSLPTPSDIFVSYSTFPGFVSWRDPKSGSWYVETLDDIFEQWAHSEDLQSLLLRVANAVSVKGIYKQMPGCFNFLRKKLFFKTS
# Caspase-7 = target: T6, Caspase-7 (Homo sapiens, UniProt P55210); experiment: caspase-7 enzyme inhibition, selectivity check – biochemical, DEVD-R110 fluorescence, cherry-pick, selectivity assay for caspase-6 inhibitor project, dose response (AID 743295); format: functional
# T6 sequence (P55210 whole entry): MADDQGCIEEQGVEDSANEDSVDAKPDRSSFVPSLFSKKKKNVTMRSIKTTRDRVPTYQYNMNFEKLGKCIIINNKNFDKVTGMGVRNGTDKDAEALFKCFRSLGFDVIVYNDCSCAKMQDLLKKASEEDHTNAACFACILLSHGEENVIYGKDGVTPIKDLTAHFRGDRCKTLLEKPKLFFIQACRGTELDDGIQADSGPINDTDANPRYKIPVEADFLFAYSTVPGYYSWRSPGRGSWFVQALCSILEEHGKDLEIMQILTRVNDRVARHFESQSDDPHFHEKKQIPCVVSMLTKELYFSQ
# [16] = target: T7, RNA-editing ligase 1, mitochondrial (Trypanosoma brucei brucei, UniProt P86926); experiment: inhibition of trypanosome RNA editing ligase – biochemical, fluorescence, Trypanosoma brucei, dose response (AID 1117295); format: functional
# T7 sequence (P86926 whole entry): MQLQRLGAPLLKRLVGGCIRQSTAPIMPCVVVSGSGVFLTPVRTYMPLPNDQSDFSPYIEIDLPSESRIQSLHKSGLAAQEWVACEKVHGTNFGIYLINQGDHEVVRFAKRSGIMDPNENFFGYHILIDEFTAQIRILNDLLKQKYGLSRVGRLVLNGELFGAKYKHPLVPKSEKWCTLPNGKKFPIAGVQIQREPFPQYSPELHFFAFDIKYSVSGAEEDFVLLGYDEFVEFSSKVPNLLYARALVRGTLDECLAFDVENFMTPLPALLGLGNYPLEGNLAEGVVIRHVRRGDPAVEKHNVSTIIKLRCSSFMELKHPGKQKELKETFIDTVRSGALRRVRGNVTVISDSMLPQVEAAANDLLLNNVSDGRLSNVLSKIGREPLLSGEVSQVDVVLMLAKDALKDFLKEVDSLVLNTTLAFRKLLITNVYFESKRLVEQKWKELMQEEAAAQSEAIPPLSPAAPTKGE
# Chain of Protein-tyrosine kinase 2-beta (Q14289 whole entry): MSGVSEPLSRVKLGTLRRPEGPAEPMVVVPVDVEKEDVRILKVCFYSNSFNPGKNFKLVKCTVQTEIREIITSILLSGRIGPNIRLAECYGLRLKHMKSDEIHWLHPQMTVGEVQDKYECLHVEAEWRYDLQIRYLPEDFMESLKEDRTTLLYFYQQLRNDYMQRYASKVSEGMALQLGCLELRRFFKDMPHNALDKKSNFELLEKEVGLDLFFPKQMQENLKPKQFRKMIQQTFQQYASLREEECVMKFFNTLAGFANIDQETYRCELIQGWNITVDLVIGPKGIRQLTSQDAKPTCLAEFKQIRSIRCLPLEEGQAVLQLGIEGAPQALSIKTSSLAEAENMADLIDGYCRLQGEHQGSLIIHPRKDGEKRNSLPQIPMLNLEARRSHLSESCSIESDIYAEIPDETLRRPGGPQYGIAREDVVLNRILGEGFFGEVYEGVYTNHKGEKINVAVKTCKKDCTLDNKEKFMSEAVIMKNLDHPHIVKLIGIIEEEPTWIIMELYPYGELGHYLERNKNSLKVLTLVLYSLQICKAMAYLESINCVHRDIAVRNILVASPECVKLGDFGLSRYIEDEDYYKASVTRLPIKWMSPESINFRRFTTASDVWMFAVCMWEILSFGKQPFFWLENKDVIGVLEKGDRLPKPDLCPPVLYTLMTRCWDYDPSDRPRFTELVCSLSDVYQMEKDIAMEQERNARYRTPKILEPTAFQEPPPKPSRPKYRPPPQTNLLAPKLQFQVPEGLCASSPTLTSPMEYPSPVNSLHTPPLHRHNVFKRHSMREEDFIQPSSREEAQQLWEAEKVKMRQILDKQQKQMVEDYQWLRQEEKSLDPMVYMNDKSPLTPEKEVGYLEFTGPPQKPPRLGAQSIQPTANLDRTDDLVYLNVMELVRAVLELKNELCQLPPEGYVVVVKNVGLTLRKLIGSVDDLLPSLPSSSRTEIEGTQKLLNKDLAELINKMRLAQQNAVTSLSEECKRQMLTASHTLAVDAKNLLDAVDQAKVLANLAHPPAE
# Chain of Paired box protein Pax-8 (Q06710 whole entry): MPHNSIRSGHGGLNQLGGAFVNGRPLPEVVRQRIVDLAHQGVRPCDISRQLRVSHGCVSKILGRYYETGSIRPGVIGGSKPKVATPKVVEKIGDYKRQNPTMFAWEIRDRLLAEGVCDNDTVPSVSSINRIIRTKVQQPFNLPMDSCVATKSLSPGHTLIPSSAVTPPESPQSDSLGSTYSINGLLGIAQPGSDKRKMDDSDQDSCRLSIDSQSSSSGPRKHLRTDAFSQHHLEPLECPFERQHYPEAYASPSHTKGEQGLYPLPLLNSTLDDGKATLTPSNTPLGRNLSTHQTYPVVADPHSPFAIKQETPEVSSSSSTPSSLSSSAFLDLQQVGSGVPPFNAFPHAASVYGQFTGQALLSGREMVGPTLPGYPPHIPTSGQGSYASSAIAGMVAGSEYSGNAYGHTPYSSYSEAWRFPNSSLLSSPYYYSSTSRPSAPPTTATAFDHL
# Chain of Large T antigen (P03070 whole entry): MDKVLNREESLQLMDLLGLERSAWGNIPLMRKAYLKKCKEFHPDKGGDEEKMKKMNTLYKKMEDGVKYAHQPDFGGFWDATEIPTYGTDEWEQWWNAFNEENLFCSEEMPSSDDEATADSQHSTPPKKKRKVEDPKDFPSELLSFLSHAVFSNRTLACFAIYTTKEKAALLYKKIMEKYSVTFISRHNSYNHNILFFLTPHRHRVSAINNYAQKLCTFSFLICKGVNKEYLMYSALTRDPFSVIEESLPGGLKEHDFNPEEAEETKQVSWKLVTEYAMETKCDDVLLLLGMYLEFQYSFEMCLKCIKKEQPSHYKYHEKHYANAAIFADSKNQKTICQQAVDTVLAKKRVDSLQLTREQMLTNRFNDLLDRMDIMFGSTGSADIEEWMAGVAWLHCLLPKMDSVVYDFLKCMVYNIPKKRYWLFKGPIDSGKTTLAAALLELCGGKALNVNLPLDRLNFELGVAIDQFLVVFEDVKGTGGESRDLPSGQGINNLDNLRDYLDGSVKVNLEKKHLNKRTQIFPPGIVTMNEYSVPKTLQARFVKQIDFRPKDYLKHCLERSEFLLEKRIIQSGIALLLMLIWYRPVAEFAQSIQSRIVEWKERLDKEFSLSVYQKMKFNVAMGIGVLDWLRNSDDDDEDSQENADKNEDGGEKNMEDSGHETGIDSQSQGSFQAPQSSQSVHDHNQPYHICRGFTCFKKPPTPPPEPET
# Chain of Cytochrome P450 3A4 (P08684 whole entry): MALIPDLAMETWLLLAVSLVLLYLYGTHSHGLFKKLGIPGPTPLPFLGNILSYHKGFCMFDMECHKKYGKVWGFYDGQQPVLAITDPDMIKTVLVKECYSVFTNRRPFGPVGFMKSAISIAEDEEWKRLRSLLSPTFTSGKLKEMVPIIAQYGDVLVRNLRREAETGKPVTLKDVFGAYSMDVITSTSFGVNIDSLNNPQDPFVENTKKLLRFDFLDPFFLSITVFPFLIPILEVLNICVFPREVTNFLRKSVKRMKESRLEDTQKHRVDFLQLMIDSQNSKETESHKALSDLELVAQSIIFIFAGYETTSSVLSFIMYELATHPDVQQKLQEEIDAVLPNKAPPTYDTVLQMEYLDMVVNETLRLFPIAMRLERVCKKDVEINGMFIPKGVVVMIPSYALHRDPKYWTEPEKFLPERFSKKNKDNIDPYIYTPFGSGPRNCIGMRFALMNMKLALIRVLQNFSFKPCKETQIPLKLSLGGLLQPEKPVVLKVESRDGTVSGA
# Chain of Glucose-6-phosphate 1-dehydrogenase (P11413 whole entry): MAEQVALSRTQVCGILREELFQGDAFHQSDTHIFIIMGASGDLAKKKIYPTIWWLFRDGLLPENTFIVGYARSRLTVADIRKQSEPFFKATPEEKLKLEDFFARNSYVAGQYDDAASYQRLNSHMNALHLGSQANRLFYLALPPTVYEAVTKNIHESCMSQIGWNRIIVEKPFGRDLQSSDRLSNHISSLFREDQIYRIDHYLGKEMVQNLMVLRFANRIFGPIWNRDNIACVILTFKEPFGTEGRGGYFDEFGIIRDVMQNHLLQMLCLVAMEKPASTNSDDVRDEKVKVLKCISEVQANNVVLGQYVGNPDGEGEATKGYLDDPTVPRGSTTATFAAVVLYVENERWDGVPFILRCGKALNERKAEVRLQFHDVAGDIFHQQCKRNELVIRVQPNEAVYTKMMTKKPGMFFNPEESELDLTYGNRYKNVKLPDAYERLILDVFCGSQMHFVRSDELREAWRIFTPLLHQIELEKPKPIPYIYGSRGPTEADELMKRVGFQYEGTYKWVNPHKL
# Chain of Cytochrome P450 2C19 (P33261 whole entry): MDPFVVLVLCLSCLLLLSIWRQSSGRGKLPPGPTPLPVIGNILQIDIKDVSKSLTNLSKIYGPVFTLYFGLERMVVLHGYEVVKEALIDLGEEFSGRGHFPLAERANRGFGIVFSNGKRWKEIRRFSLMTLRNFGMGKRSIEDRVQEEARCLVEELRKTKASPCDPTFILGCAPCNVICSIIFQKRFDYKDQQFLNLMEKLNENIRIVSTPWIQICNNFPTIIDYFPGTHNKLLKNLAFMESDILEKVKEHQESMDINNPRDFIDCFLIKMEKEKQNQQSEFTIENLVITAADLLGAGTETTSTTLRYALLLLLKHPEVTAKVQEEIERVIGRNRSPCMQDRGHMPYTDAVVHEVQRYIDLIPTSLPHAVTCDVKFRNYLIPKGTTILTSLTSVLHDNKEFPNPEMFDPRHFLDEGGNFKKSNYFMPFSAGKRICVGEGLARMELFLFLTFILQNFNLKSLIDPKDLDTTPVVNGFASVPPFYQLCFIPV
smiles,measurement,setting,value
COc1ccc2nc(C)cc(SCC(=O)N/N=C/c3cccc4ccccc34)c2c1,IC50,[1],2.57 µM (active)
same,AC50,[2],1.11 µM (active)
CC(C)(C)C(=O)NC(=C(Cl)Cl)P(=O)(O)O,IC50,[1],9.26 µM (active)
same,AC50,Cytochrome P450 1A2,0.1 µM (inconclusive)
C[C@]12CCC3C(CCC4=CC(O)CC[C@@]43/C=N/O)C1(O)CCC2C1=CC(=O)OC1 (stereo partly specified),EC50,BJ [3],1.9 µM (active)
same,CC50,Vero [4],0.79 µM (active)
same,EC50,BJ [5],2.56 µM (active)
same,IC50,[6],> 39.8 µM (not active)
same,EC50,BJ [7],2.36 µM (inconclusive)
same,EC50,[8],2.33 µM (active)
same,IC50,[9],> 80 µM (inactive)
same,EC50,BJ [10],0.391 µM (active)
same,CC50,Vero [11],1.34 µM (active)
same,AC50,Paired box protein Pax-8,2.22 µM (active)
same,AC50,[12],50.2 µM (active)
C[C@@H]1CC=C[C@H]2[C@H]1C(=O)N(Cc1ccccc1)[C@H]2c1ccc(F)c(Br)c1,CC50,Vero [4],24.1 µM (active)
same,AC50,[13],5.04 µM (active)
same,EC50,Protein RecA,23 µM (active)
O=C(CSc1nnc(-c2cccnc2)n1Cc1ccco1)c1ccc(Br)cc1,IC50,[14],> 100 µM (active)
COC(=O)C(Cc1c[nH]c2ccccc12)NC(=O)C(C)C (stereo unspecified),AC50,Cytochrome P450 2C19,22.4 µM (inconclusive)
same,IC50,[14],> 100 µM (active)
same,AC50,Cytochrome P450 3A4,31.6 µM (inconclusive)
Nc1c(O)cccc1C(=O)O,IC50,Large T antigen,20.1 µM (active)
same,IC50,[15],24 µM (inactive)
same,AC50,[13],> 380 µM (inactive)
same,EC50,Protein RecA,5.43 µM (active)
same,AC50,Caspase-6,1.59 µM (active)
same,AC50,Caspase-9,> 70 µM (inactive)
same,AC50,Caspase-7,6.14 µM (active)
O=C1CCCCC1Oc1ccc2ccc(=O)oc2c1 (stereo unspecified),IC50,[14],> 100 µM (active)
CCC(=O)c1ccccc1OCCCN1CCC(Cc2ccccc2)CC1,IC50,[16],> 96.6 µM (inactive)
